# Results taken from patent US20160136130A1, “Oral Ultraviolet Resistance Enhancer” (KAO CORPORATION, priority 2013, published 2016).
# How the values were obtained:
# [1] = tested on: PCNA, CyclinD1; assay: qRT-PCR of UVB-induced proliferation-related molecule expression in skin; assay type: in vivo, mouse; settings: 1.0% GDL feed 2 weeks; UVB 40 mJ/cm^2; 24 hours after irradiation
# Description: (§1) HR-1 hairless mice (female, 8 weeks of age) (Japan SLC, Inc.) were bred in conditions of a temperature of 23±1° C., a humidity of 50±1%, and a lighting time of 7:00 to 19:00, and the mice freely ingested feed and water during the test period. […] After the two-week ingestion term, two sites (an irradiation site and a non-irradiation site) of 1.5 cm×1.0 cm were set in contiguity with each other on the back of the mouse under pentobarbital anesthesia, and irradiation was applied to the irradiation site in a UVB exposure dose of 1 mW/cm^2 for 40 seconds (40 mJ/cm^2). After 24 hours from the irradiation, blood was drawn from a heart, and the skin was taken from the UVB non-irradiation site and the irradiation site, from which RNA was extracted. A gene expression level of the molecule, shown below, was quantified from the extracted RNA according to qRT-PCR. […]
# [2] = tested on: EDN1, c-Kit, LIF, FGF2, HGF; assay: qRT-PCR of UVB-induced melanin synthesis-related molecule expression in skin; assay type: in vivo, mouse; settings: 1.0% GDL feed 2 weeks; UVB 40 mJ/cm^2; 24 hours after irradiation
# Description: (§2) HR-1 hairless mice (female, 8 weeks of age) (Japan SLC, Inc.) were bred in conditions of a temperature of 23±1° C., a humidity of 50±1%, and a lighting time of 7:00 to 19:00, and the mice freely ingested feed and water during the test period. […] After the two-week ingestion term, two sites (an irradiation site and a non-irradiation site) of 1.5 cm×1.0 cm were set in contiguity with each other on the back of the mouse under pentobarbital anesthesia, and irradiation was applied to the irradiation site in a UVB exposure dose of 1 mW/cm^2 for 40 seconds (40 mJ/cm^2). After 24 hours from the irradiation, blood was drawn from a heart, and the skin was taken from the UVB non-irradiation site and the irradiation site, from which RNA was extracted. A gene expression level of the molecule, shown below, was quantified from the extracted RNA according to qRT-PCR. As a TaqMan Gene Expression Assay (Applied Biosystems) probe, which specifically detects a target gene, were used Il-1b (Mm01336189_m1; IL-1b, Il-6 (Mm00446190_m1; IL-6), Gm-csf (Mm01290062_m1; GM-CSF), Tnf (Mm00443258_m1; TNFa), Ptgs2 (Mm01307329_m1; COX-2), Tlr3 (Mm01207404_m1; TLR3), Socs3 (Mm00545913_s1; SOCS3), Vcam1 (Mm01320970_m1; VCAM-1), Icam1 (Mm00516023_m1; ICAM-1), Sele (Mm00441278_m1; E-selectin), Edn1 (Mm00438656_m1; EDN1), Kit1 (Mm00442972_m1; SCF), C-kit (Mm00445212_m1; c-Kit), Lif (Mm00434761_m1; LIF), Fgf2 (Mm00433287_m1; FGF2), Hgf (Mm01135185_m1; HGF), Pcna (Mm00448100_g1; PCNA), Ccnd1 (Mm00432359_m1; CyclinD1), Mmp13 (Mm00439491_m1; MMP13), Mmp2 (Mm00439506_m1; MMP2), Mmp9 (Mm00442991_m1; MMP9), and Mmp14(Mm00485054_m1; MMP14). A target gene expression level was corrected by an expression level of an internal standard gene Rplp0 (Mm01974474_gH; RPLP0). An analysis was performed using 7500 Fast Real-Time PCR System (Applied Biosystems). The obtained values are expressed as Ave.±S.D., n=10, and as for a statistical significance test between many groups, a multiple comparison test according to Dunnett was performed (*p<0.05, **p<0.01 (vs Cont UVB+). • IL-1β: Interleukin-1β • IL-6: Interleukin-6 • GM-CSF: Granulocyte macrophage colony-stimulating factor • TNFα: Tumor necrosis factor α • COX-2: Cyclooxygenase-2 • TLR3: Toll-like receptor 3 • SOCS3: Suppressor of cytokine signaling 3 • VCAM-1: Vascular cell adhesion molecule-1 • ICAM-1: Intercellular adhesion molecule-1 • E-selectin • EDN1: Endothelin 1 • SCF: Stem cell factor (kit-ligand) • c-Kit • LIF: Leukemia inhibitory factor • FGF2: Fibroblast growth factor 2 (basic) • HGF: Hepatocyte growth factor • PCNA: Proliferating cell nuclear antigen • CyclinD1 • MMP13: Matrix metallopeptidase 13 (Collagenase 3) • MMP2: Matrix metallopeptidase 2 (Gelatinase A) • MMP9: Matrix metallopeptidase 9 (Gelatinase B) • MMP14: Matrix metallopeptidase 14 (membrane-inserted)
# [3] = tested on: IL-1β, IL-6, GM-CSF, TNFα, COX-2, TLR3, SOCS3; assay: qRT-PCR of UVB-induced inflammation-related gene expression in skin; assay type: in vivo, mouse; settings: 1.0% GDL feed 2 weeks; UVB 40 mJ/cm^2; 24 hours after irradiation; corrected by Rplp0
# Description: as §2
# [4] = tested on: MMP13, MMP2, MMP9, MMP14; assay: qRT-PCR of UVB-induced dermal denaturation-related molecule expression in skin; assay type: in vivo, mouse; settings: 1.0% GDL feed 2 weeks; UVB 40 mJ/cm^2; 24 hours after irradiation
# Description: as §2, with “An analysis was performed using 7500 Fast Real-Time PCR System (Applied Biosystems).” left out
# [5] = tested on: HRM-2 hairless mice; assay: Long-term repeated UVB irradiation (20 weeks): pigmentation, stratum corneum function, skin elasticity; assay type: in vivo, mouse; settings: 2.0% GDL feed
# Description: After a test feed was previously ingested for 3 weeks, UVB irradiation was applied to the UVB irradiation groups once per day over 20 weeks. As an ultraviolet resistance was obtained by continuous irradiation, a UVB irradiation intensity was increased from 40 mJ/cm^2 to 130 mJ/cm^2 in stages (irradiation in 0 to the first week: 40 mJ/cm^2, irradiation in the second to the forth weeks: 54 mJ/cm^2, irradiation in the fifth to the seventh weeks: 72 mJ/cm^2, irradiation in the eighth to the twelfth weeks: 108 mJ/cm^2, irradiation in the thirteenth to the fourteenth weeks: 120 mJ/cm^2, irradiation in the fifteenth to twentieth weeks: 130 mJ/cm^2). During the UVB irradiation term, the test feed was ingested. At the time of the grouping, and the irradiation 0th, 4th, 8th, 12th, 16th, and 20th weeks, the measurements of L*values using a spectrophotometer, TEWL values using a Tewameter, and stratum corneum moisture contents (the Capacitance value) using a Corneometer were performed. At the irradiation 20th week, skin physical parameters were measured using a Cutometer. The obtained values are expressed as Ave.±S.D., n=10-11, and the multiple comparison test was performed according to Tukey-Kramer.
# [6] = tested on: healthy males; assay: Human crossover test, capsule including glucono-δ-lactone: MED, erythema, pigmentation after UVB; assay type: in vivo; settings: 2000 mg glucono-δ-lactone per day orally
# Description: A 4-week ingestion interval was provided between the first half and the last half of the crossover test. Glucono-δ-lactone, which is a test product, is a food additive (Fuso Chemical Co., Ltd.), and the intake was divided into twice a day for ingestion. After a 3-week ingestion term, irradiation was applied to an upper arm inside part with a UVB intensity of 1 mW/cm^2 for 7 different time periods, each at different sites (an irradiation area of 0.6 cm×1.0 cm per site). After 24 hours from the UVB irradiation, an MED value (the minimum erythema dose) was visually evaluated.
# After the 3-week ingestion term, irradiationwith a radiation dose corresponding to 2 MED was applied to an area of 1.5 cm×1.5 cm on the upper arm inside part with a UVB intensity of 1 mW/cm^2. After 24 hours from the UVB irradiation, a ΔAa*value (erythema intensity: a difference from that in the non-irradiation site) was measured using a spectrophotometer. Further, after one week from the UVB irradiation, a ΔL*value (degree of pigmentation: a difference from that in the non-irradiation site) in each irradiation site wasmeasuredusing the spectrophotometer. The obtained values are expressed as Ave.±S.D., n=10, and as for a statistical significance test between the two groups, a paired t-test was performed (*p<0.05, **p<0.01).
# [7] = tested on: HR-1 hairless mice; assay: Ultraviolet-induced erythema (a* value) and epidermal thickness after oral GDL mixed feed; assay type: in vivo, mouse; settings: UVB 40 mJ/cm^2
# Description: HR-1 hairless mice (female, 8 weeks of age) (Japan SLC, Inc.) were bred in conditions of a temperature of 23±1° C., a humidity of 50±1%, and a lighting time of 7:00 to 19:00, and the mice freely ingested feed and water during the test period. […] After the two-week ingestion term, two sites (an irradiation site and a non-irradiation site) of 1.5 cm×1.0 cm were set in contiguity with each other on the back of the mouse under pentobarbital anesthesia, and irradiation was applied to the irradiation site in a UVB exposure dose of 1 mW/cm^2 for 40 seconds (40 mJ/cm^2). A degree of erythema was evaluated after 2 days from the irradiation by a skin color (a*value) measurement using a spectrophotometer SE-6000 (Nippon Denshoku Industries Co., Ltd.). The a*value is an index showing redness of the skin color, and it can be said that the skin turns more red, namely, the more erythema are generated, as the a* value is increased.
# After the measurement, blood was drawn from a heart under deep anesthesia, and the skin was taken from the UVB non-irradiation site and the irradiation site. […] As for an epidermal thickness, an average value of epidermal thicknesses at 15 arbitrary points per tissue was defined as the epidermal thickness of the tissue.
# [8] = tested on: VCAM-1, ICAM-1, E-selectin; assay: qRT-PCR of UVB-induced adhesion molecule expression in skin; assay type: in vivo, mouse; settings: 1.0% GDL feed 2 weeks; UVB 40 mJ/cm^2; 24 hours after irradiation
# Description: as §1
# [9] = tested on: IGF-1; settings: applied to the skin; cited from earlier work
# [10] = UVB once per day, 40 to 130 mJ/cm^2, after the UV irradiation 8th week or 12th week
compound,measurement,setting,value
"O=C1O[C@H](CO)[C@@H](O)[C@H](O)[C@H]1O [GDL, Glucono-δ-lactone]",CyclinD1 expression,[1],suppressed
same,PCNA expression,[1],suppressed
same,EDN1 expression,[2],significantly reduced
same,FGF2 expression,[2],significantly reduced
same,HGF expression,[2],significantly reduced
same,LIF expression,[2],significantly reduced
same,c-Kit expression,[2],significantly reduced
same,COX-2 gene expression in irradiation sites vs control,[3],significantly suppressed
same,GM-CSF gene expression in irradiation sites vs control,[3],significantly suppressed
same,IL-1β gene expression in irradiation sites vs control,[3],significantly suppressed
same,IL-6 gene expression in irradiation sites vs control,[3],significantly suppressed
same,SOCS3 gene expression in irradiation sites vs control,[3],significantly suppressed
same,TLR3 gene expression in irradiation sites vs control,[3],significantly suppressed
same,TNFα gene expression in irradiation sites vs control,[3],significantly suppressed
same,collagenase (MMP13) expression,[4],suppressed
same,gelatinase MMP2 expression,[4],suppressed
same,gelatinase MMP9 expression,[4],suppressed
same,membrane-associated MMP (MMP14) expression,[4],suppressed
same,reduction of the skin viscoelasticity (Uv/Ue),"[5]; UVB once per day over 20 weeks, Cutometer at irradiation 20th week",suppressed
same,decrease of L*value caused by the UVB irradiation (pigmentation),[5]; [10],suppressed
same,decrease of stratum corneum moisture content (the Capacitance value) caused by the UVB irradiation,[5]; [10],suppressed
same,Δa*values (erythema intensity) compared to the placebo group,"[6]; 2 MED UVB, after 24 hours from the UVB irradiation",significantly decreased
same,AL* values (degree of pigmentation) compared to the placebo group,"[6]; 2 MED UVB, after one week from the UVB irradiation",significantly decreased
same,MED values (minimum erythema dose) compared to the placebo group,"[6]; after 3-week ingestion, 24 hours after UVB, upper arm inside",significantly high
same,increase of a*values due to the UVB irradiation (erythema),"[7]; 0.5% and 1% GDL mixed feed for 2 weeks, 2 days after irradiation",concentration-dependently suppressed
same,a* value in the irradiation sites compared to the irradiation sites in the control group,"[7]; 1% GDL group, feed for 2 weeks, 2 days after irradiation",significant suppression
same,increase of epidermal thickness in the irradiation sites compared to control group,"[7]; GDL groups (0.5%, 1%), feed for 2 weeks, HE stain",significantly suppressed
same,ICAM-1 expression,[8],suppressed
same,VCAM-1 expression,[8],suppressed
O=C(O)[C@H](O)[C@@H](O)[C@H](O)[C@H](O)CO [gluconic acid],IGF-1 secretion,[9],promoted
